Experiments:
[1] = test system: mononuclear cells of human peripheral blood; assay: Differentiation of osteoclasts in mononuclear cells of human peripheral blood: TRAP staining and real-time PCR; type: cell-based; conditions: M-CSF, RANKL, 9 days
Procedure: The mononuclear cells of human peripheral blood were cultured for 9 days after stimulating with M-CSF, RANKL, and halofuginone. Then, the cells were stained by TRAP according to the manufacturer's manual, and the amount of mRNA of TRAP, NFATc1, calcitonin receptor (CTR), cathepsin K, MMP9, and RANK were confirmed by real-time PCR.

[2] = test system: Th17, Th1 and Th2 cells from splenocytes; assay: Differentiation of Th17-, Th1-, and Th2 cells from mouse splenocytes by halofuginone treatment; type: cell-based
Procedure: Splenocytes were obtained from mice, that is, the spleens removed from the mice and the spleen tissues were thinly ground using a tearing slide and the red blood cells (RBC) in the splenocytes were removed with the RBC lysis solution. Then, PBS buffer solution was added thereto, and the mixture was centrifuged, and washed to obtain splenocytes. Then, the singe cells (1 ? 10^6) isolated from the spleens were aliquoted into a 24-well plate coated with anti-CD3 antibody (1 μg/mL) were treated under the condition of capable of stimulating Th17 cells (anti-CD28 antibody (1 μg/mL), TGF-β (2 ng/ mL), IL-6 (20 ng/mL), anti-IL-4 (10 μg/mL), and anti-IFN-γ (10 μg/mL); the condition of capable of stimulating Th1 cells (anti-CD28 antibody (1 μg/mL), IL-12 (10 ng/mL), and anti-IL-4 (10 μg/mL)); or the condition of capable of stimulating Th2 cells (anti-CD28 antibody (1 μg/mL), IL-4 (10 ng/mL), and anti-IFN-γ (10 μg/mL)); and the cells were cultured for 3 days, and in particular, cultured after treating the cells with halofuginone at respective concentration and cultured. Specifically, DMSO treatment was used for the control group.

IL-17 and Foxp3 genes = assay: Expression of IL-17 and Foxp3 genes in splenocytes and draining lymph nodes by RT-PCR; type: in vivo, mouse; conditions: mRNA, splenocytes and draining lymph nodes of CIA mice, FIG. 2C
Procedure: For the construction of a mouse model with collagen-induced arthritis (hereinafter, referred to as “CIA”), a 6-week old male DBA/1J mouse was subjected to primary immunization by intradermal injection after mixing the bovine type II collagen (hereinafter, referred to as “CII”) and complete Freud's adjuvant (CFA) in an amount of 100 μL, respectively. After a week thereafter, halofuginone was injected intraperitoneally at 3 day intervals at a concentration of 100 μg/kg and 500 μg/kg, respectively (9 weeks).
To examine the effect of halofuginone treatment in an animal model, the RNA in the splenocytes and draining lymph nodes were extracted using the Trizol reagent, and the expression of IL-17and Foxp3 genes was confirmed by RT-PCR.
The real-time PCR was performed using the LightCycler 2.0 System Instrument and the reaction compounds were prepared by mixing 1 μL of each cDNA, 10 μL of premix Ex Taq as an enzyme for the initiation, and each primer pair to a final volume of 20 μL using distilled water. […] The values of cycle threshold (Ct) were analyzed and the amount of mRNA expression for each target was indicated in terms of the amount of beta-actin mRNA expression and the relative quantity. […]

Rcan3 and Sox6 = assay: Expression of Rcan3 and Sox6 in joint tissue of CII-immunized DBA/1J mice by immunohistochemical staining; type: in vivo, mouse; conditions: 500 μg/kg intraperitoneally, 50 days, vs untreated group, FIG. 7
From the text: Furthermore, to examine whether the halofuginone compound of the present invention can promote the differentiation and the activity of osteoblasts, the present inventors performed the following experiment for the purpose of confirming the effect of the halofuginone compound on the expression and the activity of Rcan3 and Sox6, which are factors associated with the differentiation of osteoblasts. Specifically, the DBA/1J mice were subjected to the primary immunization by intradermally injecting bovine type II collagen (hereinafter, “CII”) in an amount of 100 μL, and one week thereafter, injected intraperitoneally with halofuginone (500 μg/kg). Fifty days thereafter, the mice were sacrificed, and the expression levels of Rcan3 and Sox6 in the joint tissue of the mice were confirmed via immunohistochemical staining method. The group of mice not treated with halofuginone was used as the control group.
The immunohistochemical staining method was performed as follows. The joints of the mice group used above were collected, fixed with 10% neutral buffered formalin, the bones were decalcified with Calci-Clear Rapid bone decalcifier and embedded in paraffin, the joint tissue was prepared into 7 μm-thick slices and attached to slides. […]

[3] = test system: IL-17 production of T cells via IDO in dendritic cells; assay: IL-17 ELISA in co-culture of halofuginone-stimulated dendritic cells and T cells; type: cell-based
Procedure: The dendritic cells cultured for 2 days after stimulating with halofuginone and the T cells cultured for 2 days under the condition of differentiating Th17 cells of <2-2> were co-cultured for 2 additional days, and IL-17 was measured using the supernatant by ELISA. That is, the supernatants of the cell cultures were collected and the amount of IL-17 was measured via sandwich ELISA method. To this end, first, the 96-well plate was treated with monoclonal anti-IL-17 ([…]) and reacted at 4° C. overnight, and upon reaction, non-specific binding was blocked using a blocking solution (1% BSA/PBST). Then, IL-17 in a half amount was diluted continuously and used as standards, and the supernatants of cell cultures were reacted at room temperature for 2 hours. Then, the biotinylated anti-IL-17 were reacted at room temperature for 2 hours, washed 4 times, and added with ExtraAvidin-alkaline phosphatase conjugate after dilution, and reacted at room temperature for 2 hours. Subsequently, PNPP/DEA solution was added thereto to develop color and the absorbance was measured at 405 nm.

[4] = dose-dependent, FIGS. 6B and 6C
[5] = condition of differentiating Th17 cells, 3 days, vs DMSO, FIG. 3A

SMILES: O=C(C[C@H]1NCCC[C@@H]1O)Cn1cnc2cc(Br)c(Cl)cc2c1=O (racemic) [halofuginone]
- differentiation of osteoclasts [1]: effectively inhibit
- mRNA expression of MMP9 [1, 4]: decreased
- mRNA expression of NFATc1 [1, 4]: decreased
- mRNA expression of RANK [1, 4]: decreased
- mRNA expression of TRAP [1, 4]: decreased
- mRNA expression of calcitonin receptor(CTR) [1, 4]: decreased
- mRNA expression of cathepsin K [1, 4]: decreased
- Th17 cells [2, 5]: inhibited
- Treg cells [2, 5]: increased
- production of IL-4 ([2]; conditions of differentiating Th1 cells, IFN-gamma, and Th2 cells): did not affect
- expression of Foxp3 (IL-17 and Foxp3 genes): increased
- expression of IL-17 (IL-17 and Foxp3 genes): decreased
- expression of Rcan3 (Rcan3 and Sox6): significant increase
- expression of Sox6 (Rcan3 and Sox6): significant increase
- IDO expression in dendritic cells ([3]; FIG. 3D legend): increase
- production of IL-17 ([3]; T cells co-cultured with dendritic cells co-stimulated with 1-MT (an IDO inhibitor) and halofuginone): no decrease
- production of IL-17 ([3]; T cells co-cultured with dendritic cells stimulated with halofuginone, FIG. 3D): decrease
